Reference: patent publication US20250051277A1, “DELIVERY OF THERAPEUTIC ALKALOID COMPOUNDS” (Sensorium Therapeutics, Inc., priority 2021, published 2025)
Where two headings read alike, the source gives them in different places.

What was measured:
[1] = Hydrolysis Assay of Example A1 (conversion by LCMS); assay type: physicochemical; settings: pH = 2.0, 25° C., 0.5 mM, 0.01M HCl; 0-48 h
Description: The hydrolysis kinetics was under a certain temperature and measured by LCMS at a certain time interval. The corresponding LCMS chromatograms were recorded and the conversions were calculated. The hydrolysis conditions and the data were summarized in below table. LCMS spectra were obtained using Agilent 1200/G1956A or SHIMADZU LCMS-2020. Standard LCMS conditions were as follows (running time 1.55 minutes): • Acidic condition: Mobile Phase A: 0.0375% TFA in water (v/v). Mobile Phase B: 0.01875% TFA in acetonitrile (v/v); Column: Kinetex EVO C18 30*2.1 mm, 5 μm. • Basic condition: Mobile Phase A: 0.025% NH3·H2O in water (v/v). Mobile Phase B: Acetonitrile; Column: Kinetex EVO C18 2.1×30 mm, 5 μm. • Conversion (%)=peak area 1/(peak area 1+peak area 2)*100%, peak area 1 is the integration of hydrolyzed product, peak area 2 is the integration of starting material.

[2] = Plasma Stability Assay of Example A4, rat plasma; settings: 37° C., 10 μM
[3] = Plasma Stability Assay of Example A4, human plasma; settings: 37° C., 10 μM
[4] = assay type: physicochemical; settings: DI water, 25° C., 0.5 mM
[5] = assay type: physicochemical; settings: SGF with pepsin, pH 1.5, 37° C., 0.5 mM
[6] = in vivo; for Plasma levels of 001: mouse, iv, 2 mg/kg
Description: Male C57/BL6 mice were used to evaluate each compound, with n=3 mice/time point.
Animals were administered through intravenous route with solution formulation at 2 mg/kg dose. […] Following blood collection, immediately, animals were sacrificed, and vena-cava was cut open and blood was drained. […] Brain samples were collected from set of three mice at each time point. […] Brain samples were homogenized using 2 volumes of ice-cold PBS (pH-7.4) of brain weight. […] Concentrations of compound (or compound and metabolite) in mouse plasma and brain samples were determined by fit for purpose LC-MS/MS method.

[7] = 5 μM
[8] = 5 μM; remark: listed apart in the source

Structure (SMILES): COc1ccc([C@@]23CCC(OC(C)=O)=C[C@@H]2N(C)CC3)cc1OC [Compound 026, [(3aS,7aS)-3a-(3,4-dimethoxyphenyl)-1-methyl-3,4,5,7a-tetrahydro-2H-indol-6-yl]acetate]
- Conversion (%) [1]: 0%
- Notes (hydrolysis) [1]: Stable;
- Compound 001 (%) (metabolite mesembrine), Rat Plasma ([2]; time 0.0 min): 96.2%
- Prodrug (%) remaining, Rat Plasma ([2]; time 0.0 min): 100.0%
- Compound 001 (%) (metabolite mesembrine), Rat Plasma ([2]; time 10 min): >99%
- Prodrug (%) remaining, Rat Plasma ([2]; time 10 min): 0.0%
- Compound 001 (%) (metabolite mesembrine), Rat Plasma ([2]; time 30 min): >99%
- Prodrug (%) remaining, Rat Plasma ([2]; time 30 min): 0.0%
- Compound 001 (%) (metabolite mesembrine), Rat Plasma ([2]; time 60 min): >99%
- Prodrug (%) remaining, Rat Plasma ([2]; time 60 min): 0.0%
- Compound 001 (%) (metabolite mesembrine), Rat Plasma ([2]; time 120 min): >99%
- Prodrug (%) remaining, Rat Plasma ([2]; time 120 min): 0.0%
- Compound 001 (%) (metabolite mesembrine), Rat Plasma ([2]; time 240 min): >99%
- Prodrug (%) remaining, Rat Plasma ([2]; time 240 min): 0.0%
- Compound 001 (%) (metabolite mesembrine), Human Plasma ([3]; time 0.0 min): >99%
- Prodrug (%) remaining, Human Plasma ([3]; time 0.0 min): 100.0%
- Compound 001 (%) (metabolite mesembrine), Human Plasma ([3]; time 10 min): >99%
- Prodrug (%) remaining, Human Plasma ([3]; time 10 min): 40.3%
- Compound 001 (%) (metabolite mesembrine), Human Plasma ([3]; time 30 min): >99%
- Prodrug (%) remaining, Human Plasma ([3]; time 30 min): 23.5%
- Compound 001 (%) (metabolite mesembrine), Human Plasma ([3]; time 60 min): >99%
- Prodrug (%) remaining, Human Plasma ([3]; time 60 min): 12.0%
- Compound 001 (%) (metabolite mesembrine), Human Plasma ([3]; time 120 min): >99%
- Prodrug (%) remaining, Human Plasma ([3]; time 120 min): 3.4%
- Compound 001 (%) (metabolite mesembrine), Human Plasma ([3]; time 240 min): >99%
- Prodrug (%) remaining, Human Plasma ([3]; time 240 min): 0.8%
- Condition 2 Conversion (%) ([4]; time 1 min): 0%
- Condition 2 Conversion (%) ([4]; time 5 min): 0%
- Condition 2 Conversion (%) ([4]; time 30 min): 0%
- Condition 2 Conversion (%) ([4]; time 1 h): 0%
- Condition 2 Conversion (%) ([4]; time 4 h): 0%
- Condition 2 Conversion (%) ([4]; time 24 h): 0%
- Condition 1 Conversion (%) ([5]; time 1 min): 0%
- Condition 1 Conversion (%) ([5]; time 5 min): 0%
- Condition 1 Conversion (%) ([5]; time 30 min): 0%
- Condition 1 Conversion (%) ([5]; time 1 h): 0%
- Condition 1 Conversion (%) ([5]; time 4 h): 0%
- Condition 1 Conversion (%) ([5]; time 24 h): 0%

Structure (SMILES): CCC(=O)OC1=C[C@@H]2N(C)CC[C@]2(c2ccc(OC)c(OC)c2)CC1 [Compound 317, [(3aS,7aS)-3a-(3,4-dimethoxyphenyl)-1-methyl-3,4,5,7a-tetrahydro-2H-indol-6-yl]propanoate]
- quantifiable levels of 001 in plasma up to ([6]; male, C57BL/6, mouse): 60 min
- Plasma levels of 001 [6]: not detectable
- Condition 2 Conversion (%) ([4]; time 1 min): 0%
- Condition 2 Conversion (%) ([4]; time 5 min): 0%
- Condition 2 Conversion (%) ([4]; time 30 min): 0%
- Condition 2 Conversion (%) ([4]; time 1 h): 0%
- Condition 2 Conversion (%) ([4]; time 4 h): 0%
- Condition 2 Conversion (%) ([4]; time 24 h): 0%
- Condition 1 Conversion (%) ([5]; time 1 min): 0%
- Condition 1 Conversion (%) ([5]; time 5 min): 0%
- Condition 1 Conversion (%) ([5]; time 30 min): 0%
- Condition 1 Conversion (%) ([5]; time 1 h): 0%
- Condition 1 Conversion (%) ([5]; time 4 h): 0%
- Condition 1 Conversion (%) ([5]; time 24 h): 0%

Structure (SMILES): COc1ccc([C@@]23CCC(OC(=O)CC(C)C)=C[C@@H]2N(C)CC3)cc1OC [Compound 334, [(3aS,7aS)-3a-(3,4-dimethoxyphenyl)-1-methyl-3,4,5,7a-tetrahydro-2H-indol-6-yl]3-methylbutanoate]
- Human Plasma Compound 001 (%) ([7]; 15 min): 63.6%
- Human Plasma Compound 001 (%) ([7]; 30 min): 63.7%
- Human Plasma Compound 001 (%) ([7]; 60 min): 65.4%
- Human Plasma Compound 001 (%) ([7]; 120 min): 65.1%
- Human Plasma Compound 001 (%) ([7]; 240 min): 63.8%
- quantifiable levels of 001 in brain up to ([6]; male, C57BL/6, mouse): 2 h
- quantifiable levels of 001 in plasma up to ([6]; male, C57BL/6, mouse): 60 min
- Plasma levels of 001 [6]: not detectable
- Condition 2 Conversion (%) ([4]; time 1 min): 0%
- Condition 2 Conversion (%) ([4]; time 5 min): 0%
- Condition 2 Conversion (%) ([4]; time 30 min): 0%
- Condition 2 Conversion (%) ([4]; time 1 h): 0%
- Condition 2 Conversion (%) ([4]; time 4 h): 0%
- Condition 2 Conversion (%) ([4]; time 24 h): 0%
- Condition 1 Conversion (%) ([5]; time 1 min): 0%
- Condition 1 Conversion (%) ([5]; time 5 min): 0%
- Condition 1 Conversion (%) ([5]; time 30 min): 0%
- Condition 1 Conversion (%) ([5]; time 1 h): 0%
- Condition 1 Conversion (%) ([5]; time 4 h): 0%
- Condition 1 Conversion (%) ([5]; time 24 h): 0%
- Mouse Plasma Compound 001 (%) ([8]; 15 min): 73.1%
- Mouse Plasma Compound 001 (%) ([8]; 30 min): 70.9%
- Mouse Plasma Compound 001 (%) ([8]; 60 min): 68.8%
- Mouse Plasma Compound 001 (%) ([8]; 120 min): 70.0%
- Mouse Plasma Compound 001 (%) ([8]; 240 min): 68.5%
